# According to ChEMBL document CHEMBL3885881, “DrugMatrix”:
# Species: Rattus norvegicus
# Test: DrugMatrix - Regimen: Daily Repeat
# Type: toxicity, organism-based, Sprague-Dawley
# Set-up: regimen Daily Repeat, gender Male, age 6-8 weeks
# Conditions: in vivo, po, route oral GAVAGE, vehicle .5 % CMC; for ABSOLUTE BASOPHIL / ABSOLUTE EOSINOPHIL / ABSOLUTE LYMPHOCYTE / ABSOLUTE MONOCYTE / ABSOLUTE SEGMENTED NEUTROPHIL / BASOPHIL / EOSINOPHIL / ERYTHROCYTE COUNT / HEMATOCRIT / HEMOGLOBIN / LEUKOCYTE COUNT / LYMPHOCYTE / MEAN CORPUSCULAR HEMOGLOBIN / MEAN CORPUSCULAR HEMOGLOBIN CONCENTRATION / MEAN CORPUSCULAR VOLUME / MONOCYTE / NEUTROPHIL / NUCLEATED RED BLOOD CELLS / PLATELET COUNT: tissue Blood; for ALANINE AMINOTRANSFERASE / ALBUMIN / ALKALINE PHOSPHATASE / ASPARTATE AMINOTRANSFERASE / BLOOD UREA NITROGEN / CARBON DIOXIDE / CHLORIDE / CHOLESTEROL / CREATINE PHOSPHOKINASE / CREATININE / GLUCOSE / LACTATE DEHYDROGENASE / LIPASE / PHOSPHORUS / POTASSIUM / SODIUM / TOTAL BILIRUBIN / TOTAL PROTEIN / URIC ACID: tissue Plasma
# [1] = 0 mg/kg, 72 h, dose level Control, time 3 day
# [2] = 0 mg/kg, 120 h, dose level Control, time 5 day
# [3] = 10 mg/kg, 72 h, dose level Low, time 3 day
compound,measurement,setting,value
CC(C)(C#N)c1cc(Cn2cncn2)cc(C(C)(C)C#N)c1 [ANASTROZOLE],ABSOLUTE BASOPHIL,[1],0 CELLS/uL
same,ABSOLUTE EOSINOPHIL,[1],0 CELLS/uL
same,ABSOLUTE LYMPHOCYTE,[1],10913.67 CELLS/uL
same,ABSOLUTE MONOCYTE,[1],85.33 CELLS/uL
same,ABSOLUTE SEGMENTED NEUTROPHIL,[1],1401 CELLS/uL
same,BASOPHIL,[1],0%
same,EOSINOPHIL,[1],0%
same,ERYTHROCYTE COUNT,[1],5.57 x10E6/uL
same,HEMATOCRIT,[1],35.58%
same,HEMOGLOBIN,[1],13.8 G/DL
same,LEUKOCYTE COUNT,[1],12.4 x10E3/uL
same,LYMPHOCYTE,[1],88%
same,MEAN CORPUSCULAR HEMOGLOBIN,[1],24.78 pg
same,MEAN CORPUSCULAR HEMOGLOBIN CONCENTRATION,[1],38.82 G/DL
same,MEAN CORPUSCULAR VOLUME,[1],63.88 fL
same,MONOCYTE,[1],0.67%
same,NEUTROPHIL,[1],11.33%
same,NUCLEATED RED BLOOD CELLS,[1],0 /100WBC
same,PLATELET COUNT,[1],1162.33 x10E3/uL
same,ALANINE AMINOTRANSFERASE,[1],53 u/L
same,ALBUMIN,[1],4.17 G/DL
same,ALKALINE PHOSPHATASE,[1],374.5 u/L
same,ASPARTATE AMINOTRANSFERASE,[1],89.5 u/L
same,BLOOD UREA NITROGEN,[1],16.33 mg/dL
same,CARBON DIOXIDE,[1],29.17 mmol/L
same,CHLORIDE,[1],97.67 MEQ/L
same,CHOLESTEROL,[1],77 mg/dL
same,CREATINE PHOSPHOKINASE,[1],464.83 u/L
same,CREATININE,[1],0.14 mg/dL
same,GLUCOSE,[1],164 mg/dL
same,LACTATE DEHYDROGENASE,[1],155.5 u/L
same,LIPASE,[1],9.17 u/L
same,PHOSPHORUS,[1],12.4 mg/dL
same,POTASSIUM,[1],6.91 MEQ/L
same,SODIUM,[1],141.47 MEQ/L
same,TOTAL BILIRUBIN,[1],0.2 mg/dL
same,TOTAL PROTEIN,[1],5.95 G/DL
same,URIC ACID,[1],1.72 mg/dL
same,ABSOLUTE BASOPHIL,[2],0 CELLS/uL
same,ABSOLUTE EOSINOPHIL,[2],20.5 CELLS/uL
same,ABSOLUTE LYMPHOCYTE,[2],13871.67 CELLS/uL
same,ABSOLUTE MONOCYTE,[2],60.5 CELLS/uL
same,ABSOLUTE SEGMENTED NEUTROPHIL,[2],980.67 CELLS/uL
same,BASOPHIL,[2],0%
same,EOSINOPHIL,[2],0.17%
same,ERYTHROCYTE COUNT,[2],5.65 x10E6/uL
same,HEMATOCRIT,[2],35.63%
same,HEMOGLOBIN,[2],14.08 G/DL
same,LEUKOCYTE COUNT,[2],14.93 x10E3/uL
same,LYMPHOCYTE,[2],92.83%
same,MEAN CORPUSCULAR HEMOGLOBIN,[2],24.97 pg
same,MEAN CORPUSCULAR HEMOGLOBIN CONCENTRATION,[2],39.55 G/DL
same,MEAN CORPUSCULAR VOLUME,[2],63.13 fL
same,MONOCYTE,[2],0.33%
same,NEUTROPHIL,[2],6.67%
same,NUCLEATED RED BLOOD CELLS,[2],0 /100WBC
same,PLATELET COUNT,[2],1248.17 x10E3/uL
same,ALANINE AMINOTRANSFERASE,[2],45.17 u/L
same,ALBUMIN,[2],4.27 G/DL
same,ALKALINE PHOSPHATASE,[2],405.67 u/L
same,ASPARTATE AMINOTRANSFERASE,[2],74.17 u/L
same,BLOOD UREA NITROGEN,[2],15.5 mg/dL
same,CARBON DIOXIDE,[2],30.17 mmol/L
same,CHLORIDE,[2],100.67 MEQ/L
same,CHOLESTEROL,[2],57 mg/dL
same,CREATINE PHOSPHOKINASE,[2],239.5 u/L
same,CREATININE,[2],0.17 mg/dL
same,GLUCOSE,[2],165.67 mg/dL
same,LACTATE DEHYDROGENASE,[2],90.5 u/L
same,LIPASE,[2],8.83 u/L
same,PHOSPHORUS,[2],12.32 mg/dL
same,POTASSIUM,[2],7.03 MEQ/L
same,SODIUM,[2],142.65 MEQ/L
same,TOTAL BILIRUBIN,[2],0.18 mg/dL
same,TOTAL PROTEIN,[2],6.03 G/DL
same,URIC ACID,[2],1.98 mg/dL
same,ABSOLUTE BASOPHIL,[3],0 CELLS/uL
same,ABSOLUTE EOSINOPHIL,[3],62 CELLS/uL
same,ABSOLUTE LYMPHOCYTE,[3],13335.67 CELLS/uL
same,ABSOLUTE MONOCYTE,[3],144.33 CELLS/uL
same,ABSOLUTE SEGMENTED NEUTROPHIL,[3],2091.33 CELLS/uL
same,BASOPHIL,[3],0%
same,EOSINOPHIL,[3],0.33%
same,ERYTHROCYTE COUNT,[3],5.84 x10E6/uL
same,HEMATOCRIT,[3],36.23%
same,HEMOGLOBIN,[3],14.47 G/DL
same,LEUKOCYTE COUNT,[3],15.63 x10E3/uL
same,LYMPHOCYTE,[3],85%
same,MEAN CORPUSCULAR HEMOGLOBIN,[3],24.77 pg
same,MEAN CORPUSCULAR HEMOGLOBIN CONCENTRATION,[3],39.93 G/DL
same,MEAN CORPUSCULAR VOLUME,[3],62 fL
same,MONOCYTE,[3],1%
same,NEUTROPHIL,[3],13.67%
same,NUCLEATED RED BLOOD CELLS,[3],0 /100WBC
same,PLATELET COUNT,[3],1170.33 x10E3/uL
same,ALANINE AMINOTRANSFERASE,[3],55.67 u/L
same,ALBUMIN,[3],4.13 G/DL
same,ALKALINE PHOSPHATASE,[3],405 u/L
same,ASPARTATE AMINOTRANSFERASE,[3],89.67 u/L
same,BLOOD UREA NITROGEN,[3],18.67 mg/dL
same,CARBON DIOXIDE,[3],29 mmol/L
same,CHLORIDE,[3],97 MEQ/L
same,CHOLESTEROL,[3],77 mg/dL
same,CREATINE PHOSPHOKINASE,[3],289.33 u/L
same,CREATININE,[3],0.1 mg/dL
same,GLUCOSE,[3],149.33 mg/dL
same,LACTATE DEHYDROGENASE,[3],219.33 u/L
same,LIPASE,[3],9.33 u/L
same,PHOSPHORUS,[3],13.03 mg/dL
same,POTASSIUM,[3],6.88 MEQ/L
same,SODIUM,[3],142.57 MEQ/L
same,TOTAL BILIRUBIN,[3],0.27 mg/dL
same,TOTAL PROTEIN,[3],5.8 G/DL
